Data reported in patent US10550109B2, “Crystal form of brexpiprazole and preparation method therefor” (Zhejiang Huahai Pharmaceutical Co., Ltd, priority 2016, dated 2020).

Assay: Comparison of stability (water content over time) of brexpiprazole solid forms at 25° C. and 60% ambient humidity
Assay type: physicochemical
Procedure: The comparation of the stability of brexpiprazole in the crystal form I, the dihydrated crystal form, the anhydrous crystal form and the amorphous form is shown in Table 1. The test in Table 1 was carried out at 25° C. and 60% ambient humidity.

Row | Structure (SMILES) | Water Content (after 1 month) (dihydrate) [wt. %] | Water Content (after 2 months) (dihydrate) [wt. %] | Water Content (after 3 months) (dihydrate) [wt. %] | Water Content (initial) (dihydrate) [wt. %] | Water Content (after 1 month) [wt. %] | Water Content (after 2 months) [wt. %] | Water Content (after 3 months) [wt. %] | Water Content (initial) [wt. %]
1 | O=c1ccc2ccc(OCCCCN3CCN(c4cccc5sccc45)CC3)cc2[nH]1 [Dihydrated crystal form, 7-[4-(4-benzo[b]thiophen-4-yl-piperazin-1-yl)butoxy]-1H-quinolin-2-one dihydrate] | 6.90 | 7.10 | 7.50 | 6.74 | – | – | – | –
2 | O=c1ccc2ccc(OCCCCN3CCN(c4cccc5sccc45)CC3)cc2[nH]1 [Crystal form I, 7-{4-[4-(1-benzothiophen-4-yl)piperazin-1-yl]butoxy}-1H-quinolin-2-one] | – | – | – | – | 1.27 | 1.26 | 1.27 | 1.24
3 | O=c1ccc2ccc(OCCCCN3CCN(c4cccc5sccc45)CC3)cc2[nH]1 [Amorphous form, 7-{4-[4-(1-benzothiophen-4-yl)piperazin-1-yl]butoxy}-1H-quinolin-2-one] | – | – | – | – | 0.13 | 0.22 | 0.40 | 0.02
4 | O=c1ccc2ccc(OCCCCN3CCN(c4cccc5sccc45)CC3)cc2[nH]1 [Anhydrous crystal form, 7-[4-(4-benzo[b]thiophen-4-yl-piperazin-1-yl)butoxy]-1H-quinolin-2-one] | – | – | – | – | 0.09 | 0.21 | 0.30 | 0.02
